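Five concentrations, 48 hours, 96-well plates. GI50: concentration for 50% inhibition of growth.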 Calls of active or inactive are those of the source. No stated cut-off is given here; in the data, active = GI50 up to about 1.1 µM and inactive = higher. Peptide text beside a SMILES is read from it. * marks the point of attachment. X27 = Clc1c(Cl)c(Cl)c(O*)c(Cl)c1Cl; Boc = CC(C)(C)OC(=O)*; OBn = c1ccc(CO*)cc1; Bn = c1ccc(C*)cc1
Experiments:
Test in all cases: DTP human tumour cell line panel, 48 h
786-0 = tested on: 786-0
CAKI-1 = tested on: CAKI-1
DU-145 = tested on: DU-145
HCT-116 = tested on: HCT-116
IGROV-1 = tested on: IGROV-1
LOX IMVI = tested on: LOX IMVI
M14 = tested on: M14
MDA-MB-435 = tested on: MDA-MB-435
Malme-3M = tested on: Malme-3M
NCI-H522 = tested on: NCI-H522
OVCAR-3 = tested on: OVCAR-3
OVCAR-8 = tested on: OVCAR-8
PC-3 = tested on: PC-3
RXF 393 = tested on: RXF 393
SF-295 = tested on: SF-295
SNB-19 = tested on: SNB-19
UACC-62 = tested on: UACC-62
HCT-15 = tested on: HCT-15
Hs-578T = tested on: Hs-578T
T47D = tested on: T47D

Compound | GI50 (786-0) | GI50 (CAKI-1) | GI50 (DU-145) | GI50 (HCT-116) | GI50 (IGROV-1) | GI50 (LOX IMVI) | GI50 (M14) | GI50 (MDA-MB-435) | GI50 (Malme-3M) | GI50 (NCI-H522) | GI50 (OVCAR-3) | GI50 (OVCAR-8) | GI50 (PC-3) | GI50 (RXF 393) | GI50 (SF-295) | GI50 (SNB-19) | GI50 (UACC-62) | GI50 (HCT-15) [µM] | GI50 (Hs-578T) | GI50 (T47D)
O=C1CCCC1CC(CN1CCOCC1)Sc1nnnn1-c1ccccc1 (stereo not drawn) | > 100 µM (inactive) | 16.8 µM (inactive) | 77.4 µM (inactive) | > 100 µM (inactive) | > 100 µM (inactive) | > 100 µM (inactive) | > 100 µM (inactive) | > 100 µM (inactive) | > 100 µM (inactive) | > 100 µM (inactive) | > 100 µM (inactive) | > 100 µM (inactive) | > 100 µM (inactive) | 34.6 µM (inactive) | > 100 µM (inactive) | > 100 µM (inactive) | > 100 µM (inactive) | – | – | –
O=c1cc(CBr)c2ccc(O)cc2o1 | > 100 µM (inactive) | 43.6 µM (inactive) | 92 µM (inactive) | > 100 µM (inactive) | 81.8 µM (inactive) | > 100 µM (inactive) | 59.6 µM (inactive) | 39 µM (inactive) | 53.7 µM (inactive) | 42.1 µM (inactive) | 32 µM (inactive) | 70.6 µM (inactive) | 62.4 µM (inactive) | 31.8 µM (inactive) | 45.7 µM (inactive) | 84.3 µM (inactive) | 55.3 µM (inactive) | 71.4 | > 100 µM (inactive) | –
O=C(N/N=C\c1cccs1)c1ccncc1 | > 100 µM (inactive) | > 100 µM (inactive) | – | > 100 µM (inactive) | > 100 µM (inactive) | – | > 100 µM (inactive) | > 100 µM (inactive) | > 100 µM (inactive) | > 100 µM (inactive) | > 100 µM (inactive) | > 100 µM (inactive) | > 100 µM (inactive) | > 100 µM (inactive) | > 100 µM (inactive) | > 100 µM (inactive) | > 100 µM (inactive) | > 100 | > 100 µM (inactive) | > 100 µM (inactive)
COc1ccc(NC2Oc3cc4c(cc3C(c3cc(OC)c(OC)c(OC)c3)C2C)OCO4)cc1 (stereo not drawn) | 0.544 µM (active) | 0.51 µM (active) | 0.574 µM (active) | 0.364 µM (active) | 0.771 µM (active) | 0.476 µM (active) | 0.294 µM (active) | 0.0991 µM (active) | 0.365 µM (active) | 0.311 µM (active) | 0.255 µM (active) | 0.655 µM (active) | 0.586 µM (active) | 0.437 µM (active) | 0.268 µM (active) | 0.607 µM (active) | 0.597 µM (active) | 0.485 | 0.398 µM (active) | –
COc1cc(C2c3cc4c(cc3[C@H](NC(=O)c3cccs3)C3COC(=O)[C@H]23)OCO4)cc(OC)c1OC (stereo partly drawn) | < 0.0221 µM (active) | – | < 0.01 µM (active) | < 0.0131 µM (active) | 0.0147 µM (active) | < 0.0107 µM (active) | < 0.0197 µM (active) | – | 92.3 µM (inactive) | < 0.01 µM (active) | 0.0361 µM (active) | < 0.01 µM (active) | < 0.01 µM (active) | 0.0133 µM (active) | < 0.01 µM (active) | < 0.018 µM (active) | < 0.0128 µM (active) | < 0.0214 | – | 46.7 µM (inactive)
CC1(C)OCC2OC3([C@H]4OC(C)(C)O[C@@H]4CO)OC(C)(C)OC3C2O1 (stereo partly drawn) | > 100 µM (inactive) | > 100 µM (inactive) | > 100 µM (inactive) | > 100 µM (inactive) | > 100 µM (inactive) | > 100 µM (inactive) | > 100 µM (inactive) | > 100 µM (inactive) | – | – | > 100 µM (inactive) | > 100 µM (inactive) | > 100 µM (inactive) | > 100 µM (inactive) | > 100 µM (inactive) | > 100 µM (inactive) | > 100 µM (inactive) | > 100 | – | > 100 µM (inactive)
COc1ccc(C2C(Cl)C(=O)N2n2cnc3ccccc3c2=O)cc1 (stereo not drawn) | 46.9 µM (inactive) | 82.8 µM (inactive) | – | 54.6 µM (inactive) | > 100 µM (inactive) | 77.6 µM (inactive) | 28.4 µM (inactive) | – | > 100 µM (inactive) | 89.3 µM (inactive) | 85.7 µM (inactive) | 51.5 µM (inactive) | – | 30.8 µM (inactive) | > 100 µM (inactive) | > 100 µM (inactive) | > 100 µM (inactive) | > 100 | – | –
COC(=O)c1nc(-c2nc(CCNC(=O)OC(C)(C)C)sc2Cl)sc1Cl | > 100 µM (inactive) | – | > 100 µM (inactive) | 60.7 µM (inactive) | > 100 µM (inactive) | – | 32.1 µM (inactive) | 92 µM (inactive) | 66.8 µM (inactive) | – | 68.9 µM (inactive) | 35.5 µM (inactive) | 28.1 µM (inactive) | > 100 µM (inactive) | > 100 µM (inactive) | > 100 µM (inactive) | 35.3 µM (inactive) | 36.3 | > 100 µM (inactive) | –
COc1ccccc1C1C(C(=O)Nc2ccccc2)=C(C)NC(C)=C1C(=O)Nc1ccccc1 | > 100 µM (inactive) | > 100 µM (inactive) | – | 65.8 µM (inactive) | 34.4 µM (inactive) | 83.2 µM (inactive) | 45 µM (inactive) | – | > 100 µM (inactive) | 48.1 µM (inactive) | 84.1 µM (inactive) | > 100 µM (inactive) | – | 80.2 µM (inactive) | 76.4 µM (inactive) | > 100 µM (inactive) | 40.6 µM (inactive) | 54 | – | –
O=C(NCc1ccccc1)c1cc2ccc(O)c(O)c2cn1 | 18 µM (inactive) | 17.2 µM (inactive) | – | 17.7 µM (inactive) | 23.7 µM (inactive) | 3.82 µM (inactive) | 5.21 µM (inactive) | – | 16.7 µM (inactive) | 16.6 µM (inactive) | 18.2 µM (inactive) | 11.2 µM (inactive) | – | 16.6 µM (inactive) | 16.9 µM (inactive) | 35.4 µM (inactive) | 18.5 µM (inactive) | 26.7 | – | –
CC(C)CC(NC(=O)C(CCC(=O)OCc1ccccc1)NC(=O)OC(C)(C)C)C(=O)NC(COCc1ccccc1)C(=O)NC(Cc1ccccc1)C(=O)Oc1c(Cl)c(Cl)c(Cl)c(Cl)c1Cl (stereo not drawn) (Boc-E(OBn)LS(Bn)F-X27; configuration not given here) | 35.7 µM (inactive) | 21.2 µM (inactive) | 35.5 µM (inactive) | 16.6 µM (inactive) | 20.7 µM (inactive) | > 100 µM (inactive) | 28 µM (inactive) | 26.2 µM (inactive) | 33.1 µM (inactive) | 21.9 µM (inactive) | – | 27 µM (inactive) | > 100 µM (inactive) | 21.4 µM (inactive) | 25.5 µM (inactive) | 28.7 µM (inactive) | 20.7 µM (inactive) | 25.8 | 25.1 µM (inactive) | –
NNC(=O)CNC(=O)CSc1nnc(COc2ccc(Cl)cc2)n1-c1ccccc1 | > 100 µM (inactive) | > 100 µM (inactive) | > 100 µM (inactive) | > 100 µM (inactive) | > 100 µM (inactive) | > 100 µM (inactive) | > 100 µM (inactive) | > 100 µM (inactive) | > 100 µM (inactive) | 41.8 µM (inactive) | > 100 µM (inactive) | > 100 µM (inactive) | > 100 µM (inactive) | > 100 µM (inactive) | > 100 µM (inactive) | > 100 µM (inactive) | > 100 µM (inactive) | > 100 | – | > 100 µM (inactive)
C[C@@H]1CC[C@@H]2[C@@H](C1)O[C@@H]([C@@H](C)OCc1ccccc1)SC2(C)C | 19.2 µM (inactive) | 14.9 µM (inactive) | 30.8 µM (inactive) | 18.3 µM (inactive) | 23.1 µM (inactive) | 21.2 µM (inactive) | 19.3 µM (inactive) | 16.9 µM (inactive) | 17.2 µM (inactive) | 14.8 µM (inactive) | – | 22.4 µM (inactive) | 19.5 µM (inactive) | 15.4 µM (inactive) | 16.6 µM (inactive) | 19 µM (inactive) | 19.3 µM (inactive) | 19.5 | – | 14.7 µM (inactive)
CCOc1ccc(N/C(=C(/C(Cl)=C(/Cl)N(CC)CC)[N+](=O)[O-])n2nnc3ccccc32)cc1 | 17.2 µM (inactive) | 13.4 µM (inactive) | – | 16.7 µM (inactive) | – | – | 31.8 µM (inactive) | 19.5 µM (inactive) | 17.9 µM (inactive) | – | 5.24 µM (inactive) | 16.2 µM (inactive) | 17.5 µM (inactive) | 14.4 µM (inactive) | 30.6 µM (inactive) | 31.7 µM (inactive) | 13.1 µM (inactive) | 19.1 | 47.6 µM (inactive) | 14.2 µM (inactive)
COC(=O)c1cc(Br)c(C(=O)C(Cl)(Cl)Cl)[nH]1 | > 100 µM (inactive) | > 100 µM (inactive) | > 100 µM (inactive) | > 100 µM (inactive) | > 100 µM (inactive) | > 100 µM (inactive) | > 100 µM (inactive) | > 100 µM (inactive) | > 100 µM (inactive) | > 100 µM (inactive) | > 100 µM (inactive) | > 100 µM (inactive) | > 100 µM (inactive) | > 100 µM (inactive) | > 100 µM (inactive) | > 100 µM (inactive) | > 100 µM (inactive) | > 100 | – | > 100 µM (inactive)
COc1ccc(C2=Nc3ccccc3SC(C)C2)cc1 (stereo not drawn) | > 100 µM (inactive) | > 100 µM (inactive) | – | 18 µM (inactive) | > 100 µM (inactive) | 38.4 µM (inactive) | > 100 µM (inactive) | – | > 100 µM (inactive) | > 100 µM (inactive) | > 100 µM (inactive) | > 100 µM (inactive) | – | > 100 µM (inactive) | > 100 µM (inactive) | > 100 µM (inactive) | > 100 µM (inactive) | > 100 | – | –

From ChEMBL document CHEMBL1201862, “PubChem BioAssay data set” (2004)
